Results on six molecules are retold here after ChEMBL document CHEMBL4270561, “Biological activity of doubly modified salinomycin analogs - Evaluation in vitro and ex vivo” (Eur J Med Chem, 2018).

For one series, the system named is SK-BR-3. The series can be described thus: Antiproliferative activity against human SK-BR-3 cells after 72 hrs by SRB assay. In kind it is functional, cell-based. Particulars: SK-BR-3, 72 h. Background: The SRB assay estimates cell density from bound dye.
Series [1] in a line: Selectivity index, ratio of IC50 for human MCF10A cells to IC50 for human LoVo/DX cells. In kind it is toxicity. The following applies: MCF10A cells versus LoVo/DX cells, read-out: Ratio IC50.
The test system of another series is MCF7. The series is described as follows: Antiproliferative activity against human MCF7 cells after 72 hrs by SRB assay. The format is functional, cell-based. Particulars: MCF7, 72 h.
Series [2] in a line: Selectivity index, ratio of IC50 for human MCF10A cells to IC50 for human ALL5 cells. The format is toxicity. Particulars: MCF10A cells versus ALL5 cells, read-out: Ratio IC50.
The test system of a further series is MCF-10A. The series can be described thus: Antiproliferative activity against human MCF10A cells after 72 hrs by SRB assay. The format is cell-based.
Series [3] is described as follows: Resistance index, ratio of IC50 for human LoVo/DX cells to IC50 for human LoVo cells. The format is functional.
Series [4] can be described thus: Selectivity index, ratio of IC50 for human MCF10A cells to IC50 for human JIMT1 cells. In kind it is toxicity. The following applies: MCF10A cells versus JIMT1 cells, read-out: Ratio IC50.
A short description of series [5]: Antiproliferative activity against human LoVo/DX cells after 72 hrs by SRB assay. The format is functional, cell-based.
A short description of series [6]: Antiproliferative activity against human ALL5 cells after 120 hrs by MTT assay. The format is functional, cell-based. Particulars: ALL5, 120 h. (In general: Formazan colour is commonly taken as a measure of viable cells.)
The test system of a further series is LoVo. The series is described as follows: Antiproliferative activity against human LoVo cells after 72 hrs by SRB assay. The format is functional, cell-based.
A further series deals with JIMT-1. The series is described as follows: Antiproliferative activity against human JIMT1 cells after 72 hrs by SRB assay. The format is functional, cell-based. The following applies: JIMT-1, 72 h.
Series [7] can be described thus: Selectivity index, ratio of IC50 for human MCF10A cells to IC50 for human SK-BR-3 cells. In kind it is toxicity. The following applies: MCF10A cells versus SK-BR-3 cells, read-out: Ratio IC50.
Series [8] in a line: Selectivity index, ratio of IC50 for human MCF10A cells to IC50 for human LoVo cells. In kind it is toxicity. The following applies: MCF10A cells versus LoVo cells, read-out: Ratio IC50.
Series [9] in a line: Selectivity index, ratio of IC50 for human MCF10A cells to IC50 for human MCF7 cells. The format is toxicity. The following applies: MCF10A cells versus MCF7 cells, read-out: Ratio IC50.
Series [10] is described as follows: Cell cycle arrest in human ALL5 cells assessed as accumulation at sub-G1 phase at 5 times antiproliferative IC50 after 48 hrs by propidium iodide staining based flow cytometry (reference value: 7.8%). In kind it is functional.
Series [11] is described as follows: Cell cycle arrest in human ALL5 cells assessed as accumulation at G2/M-phase at 5 times antiproliferative IC50 after 96 hrs by propidium iodide staining based flow cytometry (reference value: 11.1%). In kind it is functional. Background: A flow cytometer gives signals particle by particle.
The nature of series [12]: Cell cycle arrest in human ALL5 cells assessed as accumulation at G2/M-phase at 5 times antiproliferative IC50 after 24 hrs by propidium iodide staining based flow cytometry (reference value: 7.98%). In kind it is functional.
The nature of series [13]: Cell cycle arrest in human ALL5 cells assessed as accumulation at sub-G1 phase at 5 times antiproliferative IC50 after 24 hrs by propidium iodide staining based flow cytometry (reference value: 6.07%). The format is functional.
Series [14] is described as follows: Cell cycle arrest in human ALL5 cells assessed as accumulation at S-phase at 5 times antiproliferative IC50 after 48 hrs by propidium iodide staining based flow cytometry (reference value: 9.82%). In kind it is functional.
Series [15] can be described thus: Cell cycle arrest in human ALL5 cells assessed as accumulation at G0/G1 phase at 5 times antiproliferative IC50 after 48 hrs by propidium iodide staining based flow cytometry (reference value: 69.6%). The format is functional.
The nature of series [16]: Cell cycle arrest in human ALL5 cells assessed as accumulation at G0/G1 phase at 5 times antiproliferative IC50 after 96 hrs by propidium iodide staining based flow cytometry (reference value: 69.8%). The format is functional.
Series [17] in a line: Cell cycle arrest in human ALL5 cells assessed as accumulation at sub-G1 phase at 5 times antiproliferative IC50 after 96 hrs by propidium iodide staining based flow cytometry (reference value: 12%). The format is functional.
The nature of series [18]: Cell cycle arrest in human ALL5 cells assessed as accumulation at S-phase at 5 times antiproliferative IC50 after 24 hrs by propidium iodide staining based flow cytometry (reference value: 6.76%). The format is functional.
A short description of series [19]: Cell cycle arrest in human ALL5 cells assessed as accumulation at S-phase at 5 times antiproliferative IC50 after 96 hrs by propidium iodide staining based flow cytometry (reference value: 7.52%). In kind it is functional.
Series [20] in a line: Cell cycle arrest in human ALL5 cells assessed as accumulation at G2/M-phase at 5 times antiproliferative IC50 after 48 hrs by propidium iodide staining based flow cytometry (reference value: 13.2%). In kind it is functional.
Series [21] in a line: Cell cycle arrest in human ALL5 cells assessed as accumulation at G0/G1 phase at 5 times antiproliferative IC50 after 24 hrs by propidium iodide staining based flow cytometry (reference value: 79.7%). In kind it is functional.

A word on the IC50: it is the concentration that gives 50% inhibition. Low readings indicate greater potency, high ones weaker potency. On to `CC[C@@H](C(=O)[C@@H](C)[C@@H](O)[C@H](C)[C@@H]1O[C@@H]([C@@H](CC)C(=O)NCCc2ccc(F)cc2)CC[C@@H]1C)[C@H]1O[C@]2(C=C[C@@H](O)[C@]3(CC[C@@](C)([C@H]4CC[C@](O)(CC)[C@H](C)O4)O3)O2)[C@H](C)C[C@@H]1C`, for which the IC50 in the series on SK-BR-3 is 5.6 µM; in the series with MCF7, 4.1 µM; with MCF-10A, 40 µM; in series [5], 2.5 µM; in series [6], 1.7 µM; in the series on LoVo, 3.8 µM. 5.1 µM corresponded to half-maximal inhibition with JIMT-1 (IC50). Further, the selectivity ratio in [1] amounted to 16; in series [2], 24; in series [4], 7.8; in series [7], 7.1; in series [8], 11; in series [9] it was 9.8. Further, the “Ratio IC50” value in series [3] is recorded as 0.66.

Take `C#CCNC(=O)[C@H](CC)[C@H]1CC[C@H](C)[C@H]([C@@H](C)[C@H](O)[C@H](C)C(=O)[C@H](CC)[C@H]2O[C@]3(C=C[C@@H](OC(=O)NCC)[C@]4(CC[C@@](C)([C@H]5CC[C@](O)(CC)[C@H](C)O5)O4)O3)[C@H](C)C[C@@H]2C)O1`: the IC50 in the series with SK-BR-3 amounted to 7.7 µM; in the series with MCF7, 4.7 µM; in the series on MCF-10A, 82 µM; in series [5] it was 3.8 µM; in [6], 3.7 µM; in the series on LoVo, 4.2 µM. The same molecule gave an IC50 in the series on JIMT-1 of 5.9 µM. For the same molecule, the selectivity ratio in series [1] came out at 22; in [2], 22; in series [4], 14; in [7] it was 11; in series [8] it was 20; in [9], 17. In addition, the Activity amounted to 26.1% in [10]; 1.55% in [11]; 6.08% in [12]; 12.2% in [13]; 1.8% in [14]; 65.9% in series [15]. Also, the Activity in [16] came out at 25.2%; in [17] it was 70.8%; in series [18], 4.1%; in [19], 2.73%; in [20] it was 6.44%; in [21] it was 77.8%. In addition, the “Ratio IC50” value in series [3] is recorded as 0.9.

With `CCNC(=O)O[C@@H]1C=C[C@]2(O[C@H]([C@@H](CC)C(=O)[C@@H](C)[C@@H](O)[C@H](C)[C@@H]3O[C@@H]([C@@H](CC)C(=O)OCC(F)(F)F)CC[C@@H]3C)[C@@H](C)C[C@H]2C)O[C@@]12CC[C@@](C)([C@H]1CC[C@](O)(CC)[C@H](C)O1)O2`, the IC50 with SK-BR-3 was 64 µM; in the series on MCF7, 6.1 µM; with MCF-10A it was 60 µM; in series [5] it was 7.5 µM; in [6], 1.5 µM; in the series on LoVo, 5.3 µM. Also, in the series with JIMT-1, the IC50 came to 11 µM. In addition, the selectivity ratio in series [1] was 8; in series [2], 40; in series [4], 5.5; in [7], 0.94; in series [8], 11; in [9] it was 9.8. Moreover, the Activity in series [10] turned out to be 19.8%; in series [11], 11%; in [12], 8.15%; in series [13], 11%; in series [14] it was 4.5%; in [15] it was 64.1%. Moreover, the Activity in series [16] is 56%; in series [17], 27.8%; in [18], 4.98%; in [19] it was 5.42%; in series [20] it was 11.8%; in [21], 76%. The “Ratio IC50” value in series [3] was determined as 1.4.

As for `C#CCNC(=O)[C@H](CC)[C@H]1CC[C@H](C)[C@H]([C@@H](C)[C@H](O)[C@H](C)C(=O)[C@H](CC)[C@H]2O[C@]3(C=C[C@@H](OC(C)=O)[C@]4(CC[C@@](C)([C@H]5CC[C@](O)(CC)[C@H](C)O5)O4)O3)[C@H](C)C[C@@H]2C)O1`, the IC50 in the series with SK-BR-3 stood at 12 µM; in the series on MCF7 it was 5.8 µM; in the series with MCF-10A, 92 µM; in series [5], 3.7 µM; in series [6], 4 µM; with LoVo, 4.4 µM. For the same molecule, in the series with JIMT-1, 17 µM corresponded to half-maximal inhibition (IC50). The selectivity ratio was found to be 25 in series [1]; 23 in series [2]; 5.4 in [4]; 7.7 in series [7]; 21 in series [8]; 16 in series [9]. For the same molecule, the Activity in [10] stood at 34.3%; in series [11], 1.27%; in [12], 5.01%; in [13], 14.5%; in [14], 1.75%; in series [15], 58.9%. Besides, the Activity was 20.6% in [16]; 76.3% in [17]; 3.48% in series [18]; 2.15% in [19]; 5.11% in series [20]; 77.1% in series [21]. Further, in [3], the “Ratio IC50” value is 0.84.

With `CCNC(=O)O[C@@H]1C=C[C@]2(O[C@H]([C@@H](CC)C(=O)[C@@H](C)[C@@H](O)[C@H](C)[C@@H]3O[C@@H]([C@@H](CC)C(=O)NCCc4ccc(F)cc4)CC[C@@H]3C)[C@@H](C)C[C@H]2C)O[C@@]12CC[C@@](C)([C@H]1CC[C@](O)(CC)[C@H](C)O1)O2`, the IC50 is 4.3 µM in the series on SK-BR-3; 3.8 µM in the series with MCF7; 58 µM in the series on MCF-10A; 3.3 µM in [5]; 2.9 µM in series [6]; 3.5 µM with LoVo. Also, in the series on JIMT-1, the IC50 was found to be 4.4 µM. For the same molecule, the selectivity ratio in series [1] was 18; in series [2], 20; in series [4] it was 13; in [7], 13; in series [8] it was 17; in series [9] it was 15. Also, the Activity is listed as 21.8% in series [10]; 1.82% in [11]; 6.14% in [12]; 9.23% in series [13]; 1.5% in series [14]; 71.6% in series [15]. In addition, the Activity in series [16] is reported as 42.5%; in series [17], 53.7%; in [18], 3.8%; in series [19], 2.28%; in series [20], 5.34%; in [21], 80.9%. Besides, in series [3], the “Ratio IC50” value was 0.94.

`CC[C@@H](C(=O)[C@@H](C)[C@@H](O)[C@H](C)[C@@H]1O[C@@H]([C@@H](CC)C(=O)OCC(F)(F)F)CC[C@@H]1C)[C@H]1O[C@]2(C=C[C@@H](O)[C@]3(CC[C@@](C)([C@H]4CC[C@](O)(CC)[C@H](C)O4)O3)O2)[C@H](C)C[C@@H]1C`: the IC50 in the series on SK-BR-3 was 17 µM; in the series on MCF7, 4.4 µM; in the series with MCF-10A it was 43 µM; in series [5], 3.9 µM; in series [6], 1.2 µM; with LoVo, 3.9 µM. The molecule further gave an IC50 with JIMT-1 of 4.6 µM. The selectivity ratio in series [1] stood at 11; in series [2] it was 36; in series [4], 9.3; in [7], 2.5; in series [8], 11; in series [9] it was 9.8. In series [3], the “Ratio IC50” value amounted to 1.
